From PubChem BioAssay AID1996
≈ marks a conversion by molar mass, not a printed value.

Conditions: buffer; pH 7.4; 200.0 µM
For `COc1cc(C(=O)Nc2ccc(C)cc2)c2ccccc2n1`, the solubility kinetic was < 0.3 µg/mL.
`FC(F)(F)c1nc2cc3nc4ccccc4[nH]c3cc2n1` showed a solubility kinetic of 9.2 µg/mL (≈ 31.9 µM).
Work on `CC(=O)c1c(C)[nH]c(C(=O)COC(=O)COc2ccccc2)c1C` yielded a solubility kinetic of 16.3 µg/mL (≈ 49.5 µM).
`CCN(c1ccccc1)c1nc(C#N)nc(N(CC)c2ccccc2)n1` showed a solubility kinetic of 0.9 µg/mL (≈ 2.61 µM).
With `COC(=O)c1ccc(C)c(NC(=O)Cn2c(C)csc2=O)c1` the solubility kinetic was > 48.1 µg/mL.
`N/C(=N\OC(=O)/C=C/c1ccccc1)c1ccncc1` showed a solubility kinetic of 34.6 µg/mL (≈ 129 µM).
`N#CCC(=O)Nc1ccc(C(=O)OCC(=O)NC(=O)NCc2ccco2)cc1` showed a solubility kinetic of 17.4 µg/mL (≈ 45.3 µM).
For `Cc1cc(=O)c(C(=O)O)nn1-c1ccccc1C(F)(F)F`, the solubility kinetic was > 44.7 µg/mL.
For `CC(C)(C)OC(=O)N1CCC(CNC(=O)c2ccc(F)cc2F)CC1`, the solubility kinetic was 51 µg/mL (≈ 144 µM).
In the case of `CC(C)Oc1ccc(S(=O)(=O)N2CCOCC2)cc1NC(=O)Cc1ccsc1`, the solubility kinetic is reported as 31.8 µg/mL (≈ 74.9 µM).
With `Cc1cccc(C(=O)OCC(=O)NCc2ccc3c(c2)OCO3)c1C` the solubility kinetic was 14.5 µg/mL (≈ 42.5 µM).
With `CC(C)C(=O)Nc1ccc2oc(=O)ccc2c1` the solubility kinetic was 33.5 µg/mL (≈ 145 µM).
With `O=C(Nc1ccsc1C(=O)O)c1ccccc1Cl` the solubility kinetic was > 42.3 µg/mL.
With `COc1ccc(NC(=O)COC(=O)C2CC3C=CC2C3)cc1` (stereo not drawn) the solubility kinetic was > 45.2 µg/mL.
In the case of `O=C(Nc1c[nH]c(=O)[nH]c1=O)c1ccccc1Br`, the solubility kinetic is reported as > 46.5 µg/mL.
`CCCC1CC(C(=O)Nc2ccccc2)C(=O)O1` (stereo not drawn) gave a solubility kinetic of 33 µg/mL (≈ 133 µM).
`S=C(NCc1cccnc1)Nc1cc(Cl)cc(Cl)c1` gave a solubility kinetic of 39.6 µg/mL (≈ 127 µM).
For `CCOc1ccccc1C(=O)Nc1ccc(C(=O)c2ccccc2)cc1`, the solubility kinetic was < 0.7 µg/mL.
Compound `CC(NC(=O)c1cc(=O)[nH]c2ccccc12)c1ccc(F)cc1F` (stereo not drawn) has a solubility kinetic of 2.8 µg/mL (≈ 8.53 µM).
`CC(=O)c1cccc(NC(=O)C2C3CCC(C3)C2C(=O)O)c1` (stereo not drawn) gave a solubility kinetic of 42.9 µg/mL (≈ 142 µM).
For `CC(C)NC(=O)CC1(C(=O)NCc2ccc(Cl)cc2)CCCC1`, the solubility kinetic was > 50.5 µg/mL.
With `Nc1cc(-c2ccncc2)c[nH]c1=O` the solubility kinetic was > 28.1 µg/mL.
In the case of `CN(C(=O)CSc1nnnn1C)C1(C#N)CCCCC1`, the solubility kinetic is reported as > 44.2 µg/mL.
With `CCOC(=O)c1c(-c2ccccc2)oc2ccc(OCC(N)=O)cc12` the solubility kinetic was < 0.7 µg/mL.
For `COc1cccc(C(=O)O/N=C(\N)c2ccc(C)cc2)c1`, the solubility kinetic was 10.2 µg/mL (≈ 35.9 µM).
For `CCCCN(C(=O)COC(=O)c1ccccc1)c1c(N)n(CCC)c(=O)[nH]c1=O`, the solubility kinetic was > 60.4 µg/mL.
With `Cc1nc(C)c(C(=O)O)c(-c2ccsc2)c1C(=O)O` the solubility kinetic was > 41.6 µg/mL.
Work on `Cc1ccccc1OCc1ccc(C(=O)N2CCOCC2)o1` yielded a solubility kinetic of 41.2 µg/mL (≈ 137 µM).
For `NC(=O)COC(=O)c1ccccc1OCc1ccc(Cl)cc1`, the solubility kinetic was 7.2 µg/mL (≈ 22.5 µM).
`O=C(Nc1ccnc(-c2ccncc2)n1)c1ccc(F)cc1` gave a solubility kinetic of 0.4 µg/mL (≈ 1.36 µM).
Compound `O=C(OCC(=O)N1CCOCC1)c1ccc(N2CCOCC2)c([N+](=O)[O-])c1` has a solubility kinetic of 54.6 µg/mL (≈ 144 µM).
With `NC(=O)c1c(NC(=O)COC(=O)c2ccc(O)c(Cl)c2)sc2c1CCCC2` the solubility kinetic was 8.5 µg/mL (≈ 20.8 µM).
`CCOc1ccc(C(=O)N2CCN(c3ccccc3)CC2)cc1` gave a solubility kinetic of 46.5 µg/mL (≈ 150 µM).
Work on `Fc1ccccc1N1CCN(Cc2cnc(Cl)s2)CC1` yielded a solubility kinetic of 37.1 µg/mL (≈ 119 µM).
For `O=C(COC(=O)Cc1ccccc1)NCc1ccc2c(c1)OCO2`, the solubility kinetic was > 49.1 µg/mL.
`CCc1ncc(/C=C2\C(=O)Nc3ccccc32)[nH]1` showed a solubility kinetic of 6.7 µg/mL (≈ 28 µM).
For `COc1ccc(CN(C)C(=S)Nc2ccc(Cl)cc2)cc1`, the solubility kinetic was 13.5 µg/mL (≈ 42.1 µM).
For `CN1CCC(N(C)S(=O)(=O)c2ccc(F)cc2F)CC1`, the solubility kinetic was > 45.7 µg/mL.
In the case of `O=S(=O)(Nc1cccc(S(=O)(=O)N2CCCC2)c1)c1cccs1`, the solubility kinetic is reported as 51.9 µg/mL (≈ 139 µM).
With `CCC(CC)C(=O)N1CCN(c2ccccc2)CC1` the solubility kinetic was > 39.1 µg/mL.
In the case of `Cc1ccc(-c2nc(=O)[nH]c3ccc(Br)cc23)cc1`, the solubility kinetic is reported as 6.7 µg/mL (≈ 21.3 µM).
`Cc1c(C(=O)O)sc2nc(/C=C/c3cccc(O)c3)[nH]c(=O)c12` showed a solubility kinetic of 35.5 µg/mL (≈ 108 µM).
In the case of `C=CCOc1ccc(C(=O)n2cc(C(=O)OC)c3ccccc32)cc1`, the solubility kinetic is reported as < 0.7 µg/mL.
`CC(C)NC(=O)CSc1nccc(-c2cccs2)n1` gave a solubility kinetic of 38.7 µg/mL (≈ 132 µM).
`CC(=O)Nc1cccc(NCC(=O)Nc2cc(S(=O)(=O)N3CCCCC3)ccc2Cl)c1` gave a solubility kinetic of 35.8 µg/mL (≈ 77 µM).
For `O=C(NCC1CCCO1)c1c(O)nc2sccn2c1=O` (stereo not drawn), the solubility kinetic was > 44.3 µg/mL.
For `O=C(NCC(=O)N1CCCC1)c1ccc(Br)o1`, the solubility kinetic was > 45.2 µg/mL.
Work on `Cc1ccc(NS(=O)(=O)c2ccc3c(c2)NC(=O)CO3)cc1` yielded a solubility kinetic of 10.7 µg/mL (≈ 33.6 µM).
`CC(NC(=O)C1CCCC1)c1ccc(Br)cc1` (stereo not drawn) showed a solubility kinetic of 33.4 µg/mL (≈ 113 µM).
In the case of `C=CCn1c(C(C)C)nc2ccccc21.Cl`, the solubility kinetic is reported as > 35.5 µg/mL.
`COc1ccc2c(c1)c(C(=O)O)c(C)n2-c1ccc(Cl)cc1` gave a solubility kinetic of 15.2 µg/mL (≈ 48.1 µM).
Work on `Cc1cccc(OCCNC(=O)CCc2ccccc2)c1` yielded a solubility kinetic of 34.4 µg/mL (≈ 121 µM).
For `O=C(O)/C=C/C(=O)Nc1ccc(Oc2ncnc3cc(Cl)ccc23)nc1`, the solubility kinetic was > 55.6 µg/mL.
In the case of `Cl.c1cnc(N2CCNCC2)nc1`, the solubility kinetic is reported as > 35.6 µg/mL.
In the case of `CCN(CC)c1ccc2c(Nc3ccccc3)c(C=O)c(=O)oc2c1`, the solubility kinetic is reported as < 0.4 µg/mL.
With `COc1ccc(S(=O)(=O)n2cnc3ccccc32)cc1OC` the solubility kinetic was > 47.8 µg/mL.
With `Cc1ccc[n+](CC(=O)N2CCCc3ccccc32)c1.[Cl-]` the solubility kinetic was > 45.4 µg/mL.
Work on `CC(=O)Nc1ccc(NC(=O)Nc2ccccc2)cc1` yielded a solubility kinetic of 6.3 µg/mL (≈ 23.4 µM).
